We go through 8 compounds from patent US6352966B1, “Cleansing bars” (Albemarle Corporation, priority 2000, dated 2002).

What all share (assay type): physicochemical
Data set [1] in a line: Surface tension in ionic buffer solution. The settings on record: 0.02 normal aqueous potassium nitrate solution at 25° C. From the text:
Also shown in Table 1 are the corresponding values for the partially neutralized monosodium salts of the corresponding alk(en)yl succinic acids.

Data set [2] is described as follows: Reflectance of cleansing bars. As to conditions: bar; the higher the reflectance the whiter the bar. As for the experimental part:
(§1) The desirable properties of cleansing bars formed from fully neutralized sodium salts of various alkenyl succinic acids of this invention were determined in a further series of comparative tests. In these tests both the reflectance and the bar hardness were determined. In addition to testing bars of five different fully neutralized succinate salts of this invention, the same properties were measured on four fully compounded commercial soap bars from different well-known soap manufacturers. As can be appreciated, the higher the reflectance the whiter the bar, and the higher the hardness, the more desirable is the bar. In Table 2, the five fully neutralized alkenyl succinic acids are identified in terms of the number of carbon atoms in the alkenyl group. Thus, for example, C6 SAS represents the fully neutralized disodium salt of n-hexenyl succinic acid. As regards reflectance, Commercial Bar B is pink in color, and Commercial Bar C is a coral-orange in color. The other two commercial bars are white.

Data set [3] is described as follows: Bar hardness of cleansing bars. The settings on record: the higher the hardness, the more desirable. As for the experimental part:
as §1

The compound `CCCCCCCCCCC(CC(=O)[O-])C(=O)[O-].[Na+].[Na+]` (stereo not drawn) [Disodium n-decylsuccinate] registered a surface tension in data set [1] of 26 millinewtons per meter.

`CCCCCCCCC(CC(=O)[O-])C(=O)[O-].[Na+].[Na+]` (stereo not drawn) [Disodium n-octylsuccinate]: in data set [1], the surface tension is 26 millinewtons per meter.

Take `CCCCCCCCCCC(CC(=O)O)C(=O)[O-].[Na+]` (stereo not drawn) [Monosodium n-decylsuccinate, reference compound]: the surface tension in data set [1] is 26.32 millinewtons per meter.

`CCCCCCCCC(CC(=O)O)C(=O)[O-].[Na+]` (stereo not drawn) [Monosodium n-octylsuccinate, reference compound] came in with a surface tension in data set [1] of 26.64 millinewtons per meter.

In data set [2], Disodium n-dodecenylsuccinate registered a Reflectance of 87. This compound displayed a surface tension in data set [1] of 25.8 millinewtons per meter. In data set [3], the “Bar Hardness” value is on record as 132.

For Disodium n-tetradecenylsuccinate, in data set [2], the Reflectance is listed as 74. Further, the surface tension in data set [1] is 26 millinewtons per meter. In addition, in data set [3], the “Bar Hardness” value came to 144.

With “Monosodium n-dodecenylsuccinate [reference compound]”, the surface tension in data set [1] came to 26.32 millinewtons per meter.

Compound “Monosodium n-tetradecenylsuccinate [reference compound]” showed a surface tension in data set [1] of 26 millinewtons per meter.
